Assay results as given in patent US20150265656A1, “HUMAN ENDOCRINE PROGENITORS FROM ADULT PANCREATIC TISSUE” (THE JOHNS HOPKINS UNIVERSITY, priority 2012, published 2015).
Peptide text beside a SMILES is read from it. * marks the point of attachment. Cbz = O=C(OCc1ccccc1)*

Key:
[1] = test system: NGN3+ cells in cultured adult human pancreatic tissue; test: % NGN3+ nuclei/cells in cultured pancreatic tissue (immunostaining); assay type: cell-based
Protocol: Human cadaveric pancreas tissue that had been enzymatically digested and subjected to density centrifugation (57) was received 2-3 days post mortem. In all experiments, stated replication refers to the number of cultures from individual organ donors unless otherwise defined. Islet purity varied between preparations from <10% to >90%. Pancreatic tissue was resuspended in 10 ml Miami Media 1A (Mediatech) supplemented with freshly prepared 0.01 g/L glutathione and cultured in low adhesion dishes at 37° C. for 4 days. Media was replaced every 2-3 days. Inhibition of γ-secretase was carried out by daily addition of N—[N-(3,5-Difluorophenacetyl-L-alanyl)]-S-phenylglycine t-butyl ester (DAPT, Tocris Biosciences) or 7-Amino-4-chloro-3-methoxyisocoumarin (JLK6, EMD Biosceinces). JAG-1 (ANASPEC), a 17-residue polypeptide corresponding to amino acids 188-204 of the Jagged-1 Notch ligand (58) and a negative control polypeptide comprised of scrambled JAG-1 amino acids were used at 47 μM. A second Notch ligand, Delta-like ligand 4 (D114)(R&D Systems) was used at 500 ng/ml. Inhibition of proteasome degradation was carried out with N-[(Phenylmethoxy)carbonyl]-L-leucyl-N-[(1S)-1-formyl-3-methylbutyl]-L-leucinamide (MG132, Tocris Bioscience) and (2R,3S,4R)-3-Hydroxy-2-[(1S)-1-hydroxy-2-methylpropyl]-4-methyl-5-oxo-2-pyrrolidinecarboxy-N-acetyl-L cysteine thioester (clasto-lactacystin beta-lactone, Tocris Bioscience). Inhibition of EGF receptor kinase was carried out with N-(3-Chlorophenyl)-6,7-dimethoxy-4-quinazolinanine hydrochloride (AG1478, Tocris Bioscience) and with N-(3-Chlorophenyl)-6,7-dimethoxy-4-quinazolinanine hydrochloride (Erlotinib, Cayman Chemical). STAT3 activation was blocked with a cell-permeable analog of the STAT3-SH2 domain-binding phosphopeptide (PpYLKTK-mts, EMD Biosciences).
Tissues stained for NGN3 expression were sectioned and stained as soon as possible after harvest. Freshly sectioned 5-8 micron frozen sections of islet preparation tissue were fixed for 5 min. in 4% paraformaldehyde (PFA) prepared in phosphate buffered saline (PBS), quenched for 5 min in 50 mM glycine in PBS then blocked in 5% donkey serum, 1% BSA in PBS for 30 min. at room temperature. 0.1 to 0.2% Triton-X100 was included for cytoplasmic and nuclear antigens, respectively. Primary antibodies were diluted in blocking buffer; mouse anti-CD133/1 (IgG1) and CD133/2 (IgG2b) unconjugated and conjugated to phycoerythrin (Miltenyi Biotec), mouse anti-cytokeratin 19 (CK19, Chemicon), guinea pig anti-swine insulin (Dako), rabbit anti-CPEP (LINCO), mouse anti-GLU (R&D Systems), goat anti-PDX1 (gift from Chris Wright), mouse anti-CgA (Dako); goat anti-amylase (AMY, Santa Cruz), mouse anti-NGN3 (Developmental Studies Hybridoma Bank, Iowa City, Iowa, hybridoma supernatant), rabbit anti-cleaved caspase-3 (Cell Signaling Technology), rabbit Ki67 (abcam), mouse anti-human E-cadherin (Invitrogen). BrdU and EdU detection were by kit from BD Bioscience and Invitrogen, respectively. Quantitative analysis of protein expression on frozen sections was carried out by imaging >800 nuclei in randomly selected fields for each treatment group. For analysis of CD133+ cells immediately after preparative fluorescent activated cell sorting (FACS), cells were immobilized, fixed and quenched directly on glass slides using a cytospin. For identification and quantification cells within pancospheres, spheres were fixed and stained similarly to tissue sections except all incubations and washes were overnight at 4° C. Stained pancospheres were mounted on coverslipped glass slides. For quantitative analyses, unbiased stereology (Stereo Investigator software) was used to estimate number of nuclei per pancosphere. Sectioned tissue and pancospheres were imaged by confocal microscopy through the Z-axis in a series of 1 micron optical sections using sequential acquisition mode. […] Mean % CPEP, % GLU and % CgA were calculated from a total of 17 pancospheres.

[2] = test system: pancospheres from CD133+/NGN3+ cells; test: Pancosphere endocrine maturation, hormone-expressing cells; assay type: cell-based, human; details: maturation media with 10 μM MPA
Protocol: To form pancospheres, CD133+ cells were resuspended at 2×10^5 cells/ml in HuES media [Knockout DMEM (Invitrogen), 10% Knockout Serum Replacement (Invitrogen), 10% Albumax, 10 ng/ml fibroblast growth factor 2 (FGF2), 1×Na pyruvate, and 1× non-essential amino acids] conditioned by overnight incubation on human SDEC cells (59, 60) and 1-2% Matrigel. Media was supplemented every 3-4 days for up to 21 days. Media was then changed to Maturation media [RPMI 1640, 0.5% BSA, 10 mM nicotinamide, 50 ng/ml human insulin like growth factor II (IGF II, R&D Systems)] for 7 days with addition of fresh nicotinamide and IGF II every 2 days without media change. IGF II was then slowly withdrawn by subsequent 50% media changes. […]
Tissues stained for NGN3 expression were sectioned and stained as soon as possible after harvest. […] Quantitative analysis of protein expression on frozen sections was carried out by imaging >800 nuclei in randomly selected fields for each treatment group. […] For identification and quantification cells within pancospheres, spheres were fixed and stained similarly to tissue sections except all incubations and washes were overnight at 4° C. […] For quantitative analyses, unbiased stereology (Stereo Investigator software) was used to estimate number of nuclei per pancosphere. […] Mean % CPEP, % GLU and % CgA were calculated from a total of 17 pancospheres.

HES1 mRNA = HES1 mRNA level in cultured pancreatic tissue (quantitative RT-PCR); assay type: cell-based, human; details: 4 days of culture
Protocol: (§1) Human cadaveric pancreas tissue that had been enzymatically digested and subjected to density centrifugation (57) was received 2-3 days post mortem. In all experiments, stated replication refers to the number of cultures from individual organ donors unless otherwise defined. Islet purity varied between preparations from <10% to >90%. Pancreatic tissue was resuspended in 10 ml Miami Media 1A (Mediatech) supplemented with freshly prepared 0.01 g/L glutathione and cultured in low adhesion dishes at 37° C. for 4 days. Media was replaced every 2-3 days. […]
(§2) Human adult and fetal pancreas RNA was commercially prepared. […] Levels of HES 1, PTF1A, PDX1, NGN3 and CYCLOPHILLIN A were determined by using Taqman® gene expression assays Hs00172878_m1, Hs00603586_g1, Hs00426216_m1, Hs00360700_g1 and Hs99999904_m1, respectively. Mean levels (6 readings/sample) of genes of interest were normalized to mean levels of CYCLOPHILLIN A. MicroRNAs hsa-mir-15a, hsa-mir-15b, hsa-mir-16 and hsa-mir-195 levels were measured using sequence specific reverse transcriptase primers and TaqMan® detection reagents (Applied Biosystems). Mean levels (6 readings/sample) of miRNAs were normalized to mean levels of 18S rRNA (Applied Biosystems Ribosomal RNA Reagent). Significance of RTPCR data was determined by ANOVA with Bonferroni-Holm Post hoc testing.

NGN3 mRNA = NGN3 mRNA level in cultured pancreatic tissue (quantitative RT-PCR); assay type: cell-based, human; details: 4 days of culture
Protocol: as §1, §2

PTF1A mRNA = PTF1A mRNA level in cultured pancreatic tissue (quantitative RT-PCR); assay type: cell-based, human; details: 4 days of culture
Protocol: as §1, §2

EGF: EGF receptor ligand added to culture (NSDSECPLSHDGYCLHDGVCMYIEALDKYACNCVVGYIGERCQYRDLKWWELR; Epidermal growth factor; UniProt P01133 971-1023, looked up)
change of % NGN3+ cells ([1]; addition of EGF 20 ng/ml): failed to significantly change

COc1c(C)c2c(c(O)c1C/C=C(\C)CCC(=O)O)C(=O)OC2 [MPA, Mycophenolic acid]
% cells GLU+ in pancospheres ([2]; carrier control 0.58%±0.2, P>0.05): 1.1%±0.23
% cells CPEP+ in pancospheres ([2]; carrier control 1.0±0.3): 2.9%±0.4

COc1oc(=O)c2cc(N)ccc2c1Cl [JLK6, 7-Amino-4-chloro-3-methoxyisocoumarin]
effect on % of cells expressing NGN3 protein ([1]; JLK6 treatment, 4 days): No significant effect

D114: Notch ligand Delta-like ligand 4 (R&D Systems)
% of NGN3+ cells, percent of carrier control ([1]; 500 ng/ml, data not shown): 60.1%±11.4

COc1cc2ncnc(Nc3cccc(Cl)c3)c2cc1OC.Cl [AG1478, N-(3-Chlorophenyl)-6,7-dimethoxy-4-quinazolinanine hydrochloride]
% NGN3+ cells, % of carrier control ([1]; 3 nM AG1478, 4 days): 69.1%±7.3
% NGN3+ cells, % of carrier control ([1]; 30 nM AG1478, 4 days): 62.3%±8.2

CC(C)C[C@@H](C=O)NC(=O)[C@H](CC(C)C)NC(=O)[C@H](CC(C)C)NC(=O)OCc1ccccc1 [MG132, N-[(Phenylmethoxy)carbonyl]-L-leucyl-N-[(1S)-1-formyl-3-methylbutyl]-L-leucinamide] (Cbz-Leu-Leu-Leu-aldehyde)
% NGN3+ cells, % of carrier control ([1]; 1 μM MG132, 4 days): 182.8%±14.9
% NGN3+ cells, % of carrier control ([1]; 10 μM MG132, 4 days): 478.8%±33.6
% NGN3+ cells, % of carrier control ([1]; 20 μM MG132, 4 days): 533.6%±28.9

JAG-1 peptide: 17-residue polypeptide corresponding to amino acids 188-204 of the Jagged-1 Notch ligand (DDYYYGFGCNKFCRPRD; UniProt P78504 188-204, looked up, fragment)
% of cells expressing NGN3 protein, % of cells treated with scrambled peptide (SJAG) ([1]; 47 μM, 4 days): 39.0%±6.5

C#Cc1cccc(Nc2ncnc3cc(OCCOC)c(OCCOC)cc23)c1 [Erlotinib]
% NGN3+ cells ([1]; 0.25 μM Erlotinib, n=1, data not shown): 31.0±4.8

C[C@H](NC(=O)Cc1cc(F)cc(F)c1)C(=O)N[C@H](C(=O)OC(C)(C)C)c1ccccc1 [DAPT, N—[N-(3,5-Difluorophenacetyl-L-alanyl)]-S-phenylglycine t-butyl ester]
level of HES1 mRNA, % of carrier control (HES1 mRNA; 2 μM DAPT): 63.0%±3.3
level of HES1 mRNA, % of carrier control (HES1 mRNA; 20 μM DAPT): 55.4%±1.5
level of NGN3 mRNA, % of carrier control (NGN3 mRNA; 2 μM DAPT): 927.4%±52.6
level of NGN3 mRNA, % of carrier control (NGN3 mRNA; 20 μM DAPT): 1886.3%±102.4
level of PTF1A mRNA, % of carrier control (PTF1A mRNA; 2 μM DAPT): 331.2%±10.8
level of PTF1A mRNA, % of carrier control (PTF1A mRNA; 20 μM DAPT): 391.6%±28.8
% of cells expressing NGN3 protein, % of carrier control ([1]; 2 μM DAPT, 4 days): 124%±1.1
% of cells expressing NGN3 protein, % of carrier control ([1]; 20 μM DAPT, 4 days): 152.0%±2.2
effect on the D114-induced decrease of % NGN3+ cells ([1]; DAPT together with D114): blocked

TGFα: EGF receptor ligand added to culture
change of % NGN3+ cells ([1]; addition of TGFα 40 ng/ml): failed to significantly change
